Results as given in ChEMBL document CHEMBL3393026, “A selective small molecule NOP (ORL-1 receptor) partial agonist for the treatment of anxiety” (Bioorg Med Chem Lett, 2015).

What was measured:
[1] = system: Rattus norvegicus; experiment: Anxiolytic activity in Long-Evans hooded rat assessed as open arm time at 3 mg/kg, ip by elevated plus maze test; format: functional; details: route intraperitoneal
[2] = system: Rattus norvegicus; experiment: Anxiolytic activity in Long-Evans hooded rat assessed as open arm time at 1 mg/kg, ip by elevated plus maze test; format: functional; details: route intraperitoneal
[3] = system: Rattus norvegicus; experiment: Anxiolytic activity in Long-Evans hooded rat assessed as open arm time at 0.3 mg/kg, ip by elevated plus maze test; format: functional; details: route intraperitoneal
[4] = system: Rattus norvegicus; experiment: Anxiolytic activity in Long-Evans hooded rat assessed as open arm time at 0.03 mg/kg, ip by elevated plus maze test; format: functional; details: route intraperitoneal
[5] = system: Rattus norvegicus; experiment: Sedative activity in Long-Evans hooded rat assessed as vertical movements at 0.3 mg/kg, ip by spontaneous locomotor activity test; format: organism-based; design: dose 0.3 mg/kg, route intraperitoneal; details: in vivo
[6] = system: Rattus norvegicus; experiment: Sedative activity in Long-Evans hooded rat assessed as vertical movements at 10 mg/kg, ip by spontaneous locomotor activity test; format: organism-based; design: dose 10 mg/kg, route intraperitoneal; details: in vivo
[7] = system: Rattus norvegicus; experiment: Anxiolytic activity in Long-Evans hooded rat assessed as open arm time at 0.1 mg/kg, ip by elevated plus maze test; format: functional; details: route intraperitoneal
[8] = system: Rattus norvegicus; experiment: Sedative activity in Long-Evans hooded rat assessed as vertical movements at 0.03 mg/kg, ip by spontaneous locomotor activity test; format: organism-based; design: dose 0.03 mg/kg, route intraperitoneal; details: in vivo
[9] = system: Rattus norvegicus; experiment: Sedative activity in Long-Evans hooded rat assessed as vertical movements at 3 mg/kg, ip by spontaneous locomotor activity test; format: organism-based; design: dose 3 mg/kg, route intraperitoneal; details: in vivo
[10] = system: Rattus norvegicus; experiment: Sedative activity in Long-Evans hooded rat assessed as vertical movements at 1 mg/kg, ip by spontaneous locomotor activity test; format: organism-based; design: dose 1 mg/kg, route intraperitoneal; details: in vivo
[11] = system: Rattus norvegicus; experiment: Sedative activity in Long-Evans hooded rat assessed as vertical movements at 0.1 mg/kg, ip by spontaneous locomotor activity test; format: organism-based; design: dose 0.1 mg/kg, route intraperitoneal; details: in vivo
[12] = system: Rattus norvegicus; experiment: Sedative activity in Long-Evans hooded rat assessed as vertical movements at 0.5 mg/kg, ip by spontaneous locomotor activity test; format: organism-based; design: dose 0.5 mg/kg, route intraperitoneal; details: in vivo
[13] = system: Rattus norvegicus; experiment: Anxiolytic activity in Long-Evans hooded rat assessed as open arm time at 0.5 mg/kg, ip by elevated plus maze test; format: functional; details: route intraperitoneal

## CCCCN(Cc1ccccc1)C[C@H](O)CN1CN(c2ccc(F)cc2)C2(CCN(CC3CCCCCCC3)CC2)C1=O
[1]
  Activity: 24%
[2]
  Activity: 57.8%
[3]
  Activity: 54.4%
[4]
  Activity: 5.9%
[5]
  Activity: 16%
[6]
  Activity: -6.2%
[7]
  Activity: 72.5%
[8]
  Activity: -0.4%
[9]
  Activity: 2.2%
[10]
  Activity: 7.6%
[11]
  Activity: 11.4%

## O=C1Nc2ccc(Cl)cc2C(c2ccccc2Cl)=NC1O (stereo not drawn) [LORAZEPAM]
[12]
  Activity: -72%
[13]
  Activity: 222.4%
